According to ChEMBL document CHEMBL4507315 (2021):

Assays:
[1] = target: LIM domain kinase 2 (Homo sapiens) (UniProt P53671); conditions: Compound concentration 100.0 nM
[2] = target: AP2-associated protein kinase 1 (Homo sapiens) (UniProt Q2M2I8); conditions: Compound concentration 100.0 nM
[3] = target: Inhibitor of nuclear factor kappa-B kinase subunit beta (Homo sapiens) (UniProt O14920); conditions: Compound concentration 100.0 nM
[4] = target: Alpha-2B adrenergic receptor (Homo sapiens) (UniProt P18089); conditions: Compound concentration 10.0 uM
[5] = target: Cyclin-dependent kinase 19 (Homo sapiens) (UniProt Q9BWU1); conditions: Compound concentration 100.0 nM
[6] = tested on: Tyrosine-protein kinase ABL1 (Homo sapiens), P00519 [M351T]; conditions: Compound concentration 100.0 nM
[7] = target: Ankyrin repeat and protein kinase domain-containing protein 1 (Homo sapiens) (UniProt Q8NFD2); conditions: Compound concentration 100.0 nM
[8] = target: Calcium/calmodulin-dependent protein kinase type 1B (Homo sapiens) (UniProt Q6P2M8); conditions: Compound concentration 100.0 nM
[9] = tested on: Epidermal growth factor receptor (Homo sapiens), P00533 [UNDEFINED MUTATION]; conditions: Compound concentration 100.0 nM
[10] = target: Serine/threonine-protein kinase ULK1 (Homo sapiens) (UniProt O75385); conditions: Compound concentration 100.0 nM
[11] = target: Muscarinic acetylcholine receptor M3 (Homo sapiens) (UniProt P20309); conditions: Compound concentration 10.0 uM
[12] = target: Alpha-1D adrenergic receptor (Homo sapiens) (UniProt P25100); conditions: Compound concentration 10.0 uM
[13] = target: Ephrin type-A receptor 4 (Homo sapiens) (UniProt P54764); conditions: Compound concentration 100.0 nM
[14] = target: Serine/threonine-protein kinase PAK 1 (Homo sapiens) (UniProt Q13153); conditions: Compound concentration 100.0 nM
[15] = target: G protein-coupled receptor kinase 3 (Homo sapiens) (UniProt P35626); conditions: Compound concentration 100.0 nM
[16] = target: Serine/threonine-protein kinase B-raf (Homo sapiens) (UniProt P15056); conditions: Compound concentration 100.0 nM
[17] = target: Serine/threonine-protein kinase TAO3 (Homo sapiens) (UniProt Q9H2K8); conditions: Compound concentration 100.0 nM
[18] = target: Cyclin-dependent kinase 18 (Homo sapiens) (UniProt Q07002); conditions: Compound concentration 100.0 nM
[19] = target: Ephrin type-A receptor 7 (Homo sapiens) (UniProt Q15375); conditions: Compound concentration 100.0 nM
[20] = target: Cyclin-dependent kinase-like 3 (Homo sapiens) (UniProt Q8IVW4); conditions: Compound concentration 100.0 nM
[21] = target: Mitogen-activated protein kinase kinase kinase 9 (Homo sapiens) (UniProt P80192); conditions: Compound concentration 100.0 nM
[22] = target: Tyrosine-protein kinase HCK (Homo sapiens) (UniProt P08631); conditions: Compound concentration 100.0 nM
[23] = target: Serine/threonine-protein kinase tousled-like 2 (Homo sapiens) (UniProt Q86UE8); conditions: Compound concentration 100.0 nM
[24] = target: Tyrosine-protein kinase Fyn (Homo sapiens) (UniProt P06241); conditions: Compound concentration 100.0 nM
[25] = target: Ribosomal protein S6 kinase alpha-3 (Homo sapiens) (UniProt P51812); conditions: Compound concentration 100.0 nM
[26] = target: Mitogen-activated protein kinase kinase kinase 19 (Homo sapiens) (UniProt Q56UN5); conditions: Compound concentration 100.0 nM
[27] = target: Serine/threonine-protein kinase SBK1 (Homo sapiens) (UniProt Q52WX2); conditions: Compound concentration 100.0 nM
[28] = target: Maternal embryonic leucine zipper kinase (Homo sapiens) (UniProt Q14680); conditions: Compound concentration 100.0 nM
[29] = target: Death-associated protein kinase 1 (Homo sapiens) (UniProt P53355); conditions: Compound concentration 100.0 nM
[30] = target: MAP kinase-activated protein kinase 2 (Homo sapiens) (UniProt P49137); conditions: Compound concentration 100.0 nM
[31] = target: Calcium/calmodulin-dependent protein kinase kinase 2 (Homo sapiens) (UniProt Q96RR4); conditions: Compound concentration 100.0 nM
[32] = target: Insulin-like growth factor 1 receptor (Homo sapiens) (UniProt P08069); conditions: Compound concentration 100.0 nM
[33] = target: Microtubule-associated serine/threonine-protein kinase 1 (Homo sapiens) (UniProt Q9Y2H9); conditions: Compound concentration 100.0 nM
[34] = target: cAMP-dependent protein kinase catalytic subunit beta (Homo sapiens) (UniProt P22694); conditions: Compound concentration 100.0 nM
[35] = target: Cyclin-dependent kinase 5 (Homo sapiens) (UniProt Q00535); conditions: Compound concentration 100.0 nM
[36] = tested on: Tyrosine-protein kinase ABL1 (Homo sapiens), P00519 [Q252H]; conditions: Compound concentration 100.0 nM
[37] = tested on: Epidermal growth factor receptor (Homo sapiens), P00533 [UNDEFINED MUTATION]; conditions: Compound concentration 100.0 nM; remark: listed apart in the source
[38] = target: Ephrin type-B receptor 4 (Homo sapiens) (UniProt P54760); conditions: Compound concentration 100.0 nM
[39] = target: Ephrin type-A receptor 1 (Homo sapiens) (UniProt P21709); conditions: Compound concentration 100.0 nM
[40] = target: Serine/threonine-protein kinase 25 (Homo sapiens) (UniProt O00506); conditions: Compound concentration 100.0 nM
[41] = target: Fibroblast growth factor receptor 1 (Homo sapiens) (UniProt P11362); conditions: Compound concentration 100.0 nM
[42] = tested on: Proto-oncogene tyrosine-protein kinase receptor Ret (Homo sapiens), P07949 [M918T]; conditions: Compound concentration 100.0 nM
[43] = target: Serine/threonine-protein kinase 17A (Homo sapiens) (UniProt Q9UEE5); conditions: Compound concentration 100.0 nM
[44] = target: Serine/threonine-protein kinase 24 (Homo sapiens) (UniProt Q9Y6E0); conditions: Compound concentration 100.0 nM
[45] = target: Tyrosine-protein kinase receptor Tie-1 (Homo sapiens) (UniProt P35590); conditions: Compound concentration 100.0 nM

Epidermal growth factor receptor (Homo sapiens), P00533 [UNDEFINED MUTATION], sequence (P00533 whole entry, looked up, change not shown): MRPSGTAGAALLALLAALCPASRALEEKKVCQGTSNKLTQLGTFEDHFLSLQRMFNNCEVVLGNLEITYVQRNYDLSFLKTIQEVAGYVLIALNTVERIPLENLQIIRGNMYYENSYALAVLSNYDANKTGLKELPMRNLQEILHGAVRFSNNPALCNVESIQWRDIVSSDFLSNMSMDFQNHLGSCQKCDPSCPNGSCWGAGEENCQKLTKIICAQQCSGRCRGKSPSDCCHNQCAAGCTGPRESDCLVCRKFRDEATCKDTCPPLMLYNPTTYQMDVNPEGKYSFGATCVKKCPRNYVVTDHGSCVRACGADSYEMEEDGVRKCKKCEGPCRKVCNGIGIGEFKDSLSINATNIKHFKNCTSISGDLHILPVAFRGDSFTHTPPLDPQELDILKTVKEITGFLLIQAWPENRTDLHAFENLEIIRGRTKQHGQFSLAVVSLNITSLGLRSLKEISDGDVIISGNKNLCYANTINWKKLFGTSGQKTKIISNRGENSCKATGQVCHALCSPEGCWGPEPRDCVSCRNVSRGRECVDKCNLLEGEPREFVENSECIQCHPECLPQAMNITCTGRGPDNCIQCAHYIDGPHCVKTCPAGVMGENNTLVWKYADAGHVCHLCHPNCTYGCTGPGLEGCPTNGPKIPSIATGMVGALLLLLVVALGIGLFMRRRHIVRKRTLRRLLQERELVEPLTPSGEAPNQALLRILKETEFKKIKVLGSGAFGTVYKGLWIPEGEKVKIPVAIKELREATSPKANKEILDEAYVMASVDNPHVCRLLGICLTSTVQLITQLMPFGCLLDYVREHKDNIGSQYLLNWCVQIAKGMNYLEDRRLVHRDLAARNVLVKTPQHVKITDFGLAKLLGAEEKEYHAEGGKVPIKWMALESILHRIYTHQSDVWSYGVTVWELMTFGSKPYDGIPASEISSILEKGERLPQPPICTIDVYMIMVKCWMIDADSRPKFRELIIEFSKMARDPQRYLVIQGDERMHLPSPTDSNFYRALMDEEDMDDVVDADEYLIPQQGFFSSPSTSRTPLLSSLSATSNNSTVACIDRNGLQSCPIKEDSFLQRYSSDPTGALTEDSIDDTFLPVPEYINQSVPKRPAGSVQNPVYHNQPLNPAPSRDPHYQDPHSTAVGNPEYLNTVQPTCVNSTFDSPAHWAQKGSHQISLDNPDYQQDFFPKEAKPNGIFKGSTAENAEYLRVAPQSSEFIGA
Serine/threonine-protein kinase tousled-like 2 (Homo sapiens), sequence (Q86UE8 whole entry, looked up): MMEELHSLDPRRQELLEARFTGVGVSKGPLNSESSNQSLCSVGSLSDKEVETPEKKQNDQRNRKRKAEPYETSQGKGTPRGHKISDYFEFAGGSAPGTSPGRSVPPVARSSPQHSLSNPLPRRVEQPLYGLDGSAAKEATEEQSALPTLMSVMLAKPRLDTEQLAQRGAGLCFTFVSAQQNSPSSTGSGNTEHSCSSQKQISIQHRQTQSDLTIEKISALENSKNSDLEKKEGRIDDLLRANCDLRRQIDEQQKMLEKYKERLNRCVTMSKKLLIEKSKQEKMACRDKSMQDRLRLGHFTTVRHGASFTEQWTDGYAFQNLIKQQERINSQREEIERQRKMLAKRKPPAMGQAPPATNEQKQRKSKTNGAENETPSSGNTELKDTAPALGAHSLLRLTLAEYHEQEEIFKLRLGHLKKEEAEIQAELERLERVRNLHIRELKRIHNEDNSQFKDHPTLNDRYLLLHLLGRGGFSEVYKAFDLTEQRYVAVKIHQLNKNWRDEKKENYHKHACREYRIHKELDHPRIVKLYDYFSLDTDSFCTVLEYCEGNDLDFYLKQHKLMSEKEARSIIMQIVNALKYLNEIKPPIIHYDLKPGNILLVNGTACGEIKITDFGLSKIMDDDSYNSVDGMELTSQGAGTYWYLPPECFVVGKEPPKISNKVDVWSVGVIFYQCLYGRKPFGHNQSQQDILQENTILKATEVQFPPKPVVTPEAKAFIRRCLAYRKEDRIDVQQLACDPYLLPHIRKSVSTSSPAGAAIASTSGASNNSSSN
Alpha-1D adrenergic receptor (Homo sapiens), sequence (P25100 whole entry): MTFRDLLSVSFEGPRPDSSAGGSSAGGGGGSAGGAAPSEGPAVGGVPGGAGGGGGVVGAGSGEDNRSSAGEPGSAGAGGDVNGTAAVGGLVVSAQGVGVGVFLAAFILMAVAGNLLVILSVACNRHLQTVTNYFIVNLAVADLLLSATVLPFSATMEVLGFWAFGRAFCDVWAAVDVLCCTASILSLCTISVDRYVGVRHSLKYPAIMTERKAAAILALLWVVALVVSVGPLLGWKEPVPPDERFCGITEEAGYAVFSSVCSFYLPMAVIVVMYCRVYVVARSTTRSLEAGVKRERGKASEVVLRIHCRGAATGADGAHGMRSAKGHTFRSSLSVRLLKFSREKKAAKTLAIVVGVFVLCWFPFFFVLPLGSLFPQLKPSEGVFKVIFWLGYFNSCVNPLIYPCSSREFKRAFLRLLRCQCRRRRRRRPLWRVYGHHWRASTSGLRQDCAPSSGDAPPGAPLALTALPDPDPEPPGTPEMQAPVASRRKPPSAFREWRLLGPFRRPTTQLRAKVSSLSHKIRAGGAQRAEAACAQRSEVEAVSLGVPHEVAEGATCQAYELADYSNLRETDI
MAP kinase-activated protein kinase 2 (Homo sapiens), sequence (P49137 whole entry, looked up): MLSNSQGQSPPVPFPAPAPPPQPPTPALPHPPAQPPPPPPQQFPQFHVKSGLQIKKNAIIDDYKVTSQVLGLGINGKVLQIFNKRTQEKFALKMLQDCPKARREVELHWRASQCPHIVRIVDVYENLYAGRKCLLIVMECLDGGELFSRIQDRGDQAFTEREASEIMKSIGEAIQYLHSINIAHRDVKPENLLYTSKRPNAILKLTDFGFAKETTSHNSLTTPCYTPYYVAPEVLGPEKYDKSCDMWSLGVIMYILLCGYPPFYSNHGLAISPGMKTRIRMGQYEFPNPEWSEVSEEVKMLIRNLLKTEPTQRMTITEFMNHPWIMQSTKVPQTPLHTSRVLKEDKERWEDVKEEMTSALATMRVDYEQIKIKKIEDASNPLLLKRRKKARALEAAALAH
Cyclin-dependent kinase-like 3 (Homo sapiens), sequence (Q8IVW4 whole entry, looked up): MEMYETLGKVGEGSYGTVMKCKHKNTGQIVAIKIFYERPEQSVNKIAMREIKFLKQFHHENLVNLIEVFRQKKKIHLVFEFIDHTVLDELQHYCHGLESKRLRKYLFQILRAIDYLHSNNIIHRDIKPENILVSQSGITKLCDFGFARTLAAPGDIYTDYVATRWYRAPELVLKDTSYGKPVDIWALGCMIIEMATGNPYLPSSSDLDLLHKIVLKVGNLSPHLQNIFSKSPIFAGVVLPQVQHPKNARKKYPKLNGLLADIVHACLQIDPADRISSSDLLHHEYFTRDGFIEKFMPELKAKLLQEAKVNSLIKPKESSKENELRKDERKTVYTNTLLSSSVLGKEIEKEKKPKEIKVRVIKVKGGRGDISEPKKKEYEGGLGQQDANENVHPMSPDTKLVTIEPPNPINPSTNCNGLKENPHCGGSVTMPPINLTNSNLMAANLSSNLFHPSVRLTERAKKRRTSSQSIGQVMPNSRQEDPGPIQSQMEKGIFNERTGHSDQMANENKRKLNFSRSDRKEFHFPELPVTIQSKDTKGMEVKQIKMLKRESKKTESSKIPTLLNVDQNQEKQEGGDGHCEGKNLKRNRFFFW
Serine/threonine-protein kinase B-raf (Homo sapiens), sequence (P15056 whole entry): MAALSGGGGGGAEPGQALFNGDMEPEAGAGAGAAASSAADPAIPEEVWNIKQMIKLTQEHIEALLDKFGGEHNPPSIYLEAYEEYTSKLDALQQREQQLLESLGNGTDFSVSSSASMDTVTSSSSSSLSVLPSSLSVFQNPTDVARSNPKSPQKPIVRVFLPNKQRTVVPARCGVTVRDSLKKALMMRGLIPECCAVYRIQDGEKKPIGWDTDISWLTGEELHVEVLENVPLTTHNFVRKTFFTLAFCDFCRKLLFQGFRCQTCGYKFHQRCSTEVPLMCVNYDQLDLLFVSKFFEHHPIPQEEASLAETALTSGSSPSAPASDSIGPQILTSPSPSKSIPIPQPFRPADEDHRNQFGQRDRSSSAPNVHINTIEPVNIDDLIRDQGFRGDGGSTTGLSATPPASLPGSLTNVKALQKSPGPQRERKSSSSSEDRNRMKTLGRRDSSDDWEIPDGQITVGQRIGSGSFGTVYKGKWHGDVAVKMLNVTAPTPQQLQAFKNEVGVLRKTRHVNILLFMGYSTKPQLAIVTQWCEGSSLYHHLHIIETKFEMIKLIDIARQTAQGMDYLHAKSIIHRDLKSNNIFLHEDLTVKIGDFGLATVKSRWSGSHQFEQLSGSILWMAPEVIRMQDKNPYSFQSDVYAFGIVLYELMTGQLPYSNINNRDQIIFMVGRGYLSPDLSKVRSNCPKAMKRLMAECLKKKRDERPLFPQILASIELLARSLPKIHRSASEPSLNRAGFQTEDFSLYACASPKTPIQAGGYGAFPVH
Ankyrin repeat and protein kinase domain-containing protein 1 (Homo sapiens), sequence (Q8NFD2 whole entry, the tested form may be a part): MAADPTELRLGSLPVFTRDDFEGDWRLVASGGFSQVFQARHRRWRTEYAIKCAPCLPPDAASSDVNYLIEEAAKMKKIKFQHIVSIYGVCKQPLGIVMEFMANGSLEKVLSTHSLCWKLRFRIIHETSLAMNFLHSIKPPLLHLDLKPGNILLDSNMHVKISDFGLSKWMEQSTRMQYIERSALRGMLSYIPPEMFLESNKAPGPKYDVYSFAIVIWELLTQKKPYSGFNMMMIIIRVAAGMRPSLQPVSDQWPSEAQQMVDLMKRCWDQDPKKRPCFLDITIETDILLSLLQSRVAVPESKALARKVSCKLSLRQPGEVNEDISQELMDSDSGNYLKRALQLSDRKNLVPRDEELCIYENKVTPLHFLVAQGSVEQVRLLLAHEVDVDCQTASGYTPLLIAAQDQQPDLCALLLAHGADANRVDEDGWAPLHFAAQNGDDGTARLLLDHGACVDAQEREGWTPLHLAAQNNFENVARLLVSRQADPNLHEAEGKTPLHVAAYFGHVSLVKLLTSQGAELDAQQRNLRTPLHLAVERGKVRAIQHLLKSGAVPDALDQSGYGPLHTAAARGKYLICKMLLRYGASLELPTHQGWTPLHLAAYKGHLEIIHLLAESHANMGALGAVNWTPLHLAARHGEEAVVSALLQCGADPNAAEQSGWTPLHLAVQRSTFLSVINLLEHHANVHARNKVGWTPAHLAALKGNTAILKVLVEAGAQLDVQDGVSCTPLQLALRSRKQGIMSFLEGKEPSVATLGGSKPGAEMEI

Nc1c(C(=O)NCc2ccc(C(=O)NCCCC3CCCCC3)cc2)cnn1-c1ccccc1 [SR-318]
inactive: residual activity [1] 100% | residual activity [2] 100% | residual activity [3] 100% | inhibition [4] 17.7% | residual activity [5] 99% | residual activity [6] 86% | residual activity [7] 100% | residual activity [8] 100% | residual activity [9] 98% | residual activity [10] 100% | inhibition [11] 25.2% | inhibition [12] 22% | residual activity [13] 100% | residual activity [14] 100% | residual activity [15] 100% | residual activity [16] 90% | residual activity [17] 96% | residual activity [18] 100% | residual activity [19] 100% | residual activity [20] 97% | residual activity [21] 96% | residual activity [22] 100% | residual activity [23] 100% | residual activity [24] 100% | residual activity [25] 92% | residual activity [26] 77% | residual activity [27] 82% | residual activity [28] 92% | residual activity [29] 92% | residual activity [30] 100% | residual activity [31] 100% | residual activity [32] 98% | residual activity [33] 100% | residual activity [34] 82% | residual activity [35] 100% | residual activity [36] 87% | residual activity [37] 100% | residual activity [38] 100% | residual activity [39] 100% | residual activity [40] 82% | residual activity [41] 71% | residual activity [42] 100% | residual activity [43] 100% | residual activity [44] 91% | residual activity [45] 100%

O=C(NCCCC1CCCCC1)c1ccc(CNC(=O)c2cnn(-c3ccccc3)c2C(F)(F)F)cc1 [SR-321]
inactive: residual activity [1] 100% | residual activity [2] 100% | residual activity [3] 100% | inhibition [4] 1.13% | residual activity [5] 96% | residual activity [6] 100% | residual activity [7] 100% | residual activity [8] 79% | residual activity [9] 100% | residual activity [10] 100% | inhibition [11] 19.5% | inhibition [12] 10.1% | residual activity [13] 70% | residual activity [14] 92% | residual activity [15] 100% | residual activity [16] 100% | residual activity [17] 99% | residual activity [18] 100% | residual activity [19] 86% | residual activity [20] 100% | residual activity [21] 100% | residual activity [22] 100% | residual activity [23] 100% | residual activity [24] 86% | residual activity [25] 100% | residual activity [26] 89% | residual activity [27] 100% | residual activity [28] 80% | residual activity [29] 100% | residual activity [30] 100% | residual activity [31] 100% | residual activity [32] 100% | residual activity [33] 88% | residual activity [34] 100% | residual activity [35] 88% | residual activity [36] 100% | residual activity [37] 100% | residual activity [38] 95% | residual activity [39] 100% | residual activity [40] 81% | residual activity [41] 100% | residual activity [42] 100% | residual activity [43] 100% | residual activity [44] 100% | residual activity [45] 100%
